Like-named read-outs stand apart in the source and are kept apart here.
Assays:
Candida albicans = assay: Checkerboard synergy (FICI) of antibiotics with SP-BIM; set-up: MIC SP-BIM 13 only / MIC in combination: Antibiotic / MIC antibiotic only: unit not given beside the values
Streptococcus pneumoniae = assay: as above; type: cell-based; details: for MIC: 24 h, antibiotic alone, read-out: MIC antibiotic only
Staphylococcus aureus = assay: as above; type: cell-based; details: Staphylococcus aureus, Staphylococcus aureus; for MIC: 24 h, antibiotic alone, read-out: MIC antibiotic only
MRSA = assay: Adjuvant broth microdilution (antibiotic MIC with SP-BIM at 50 μg/mL); type: cell-based, Staphylococcus aureus; details: Staphylococcus aureus, antibiotic alone, Table 4, read-out: MIC of antibiotic, No compound
[1] = test system: clinical antibiotic resistant isolates of Enterococcus faecium; assay: Checkerboard resistance breaking by SP-BIM 13; type: cell-based; details: for FIC compound / Rescue concentration of SP-BIM 13: SP-BIM 13 with the labelled antibiotic; for Interpretation / Σ FIC: antibiotic + SP-BIM 13; for MIC of antibiotic only: antibiotic alone; for FIC antibiotic: combination with SP-BIM 13; for MIC of antibiotic in combination: with SP-BIM 13 at rescue concentration
Klebsiella pneumoniae = assay: Checkerboard synergy (FICI) of antibiotics with SP-BIM; type: cell-based; details: for MIC: 24 h, antibiotic alone, read-out: MIC antibiotic only
[2] = test system: clinical antibiotic resistant isolates of MRSA; assay: Checkerboard resistance breaking by SP-BIM 13; type: cell-based, Staphylococcus aureus; details: MRSA strain 1594
[3] = SP-BIM 13 in combination with the labelled antibiotic
[4] = Streptococcus pneumonia (title: Streptococcus pyogenes), antibiotic + SP-BIM 9
[5] = Streptococcus pneumoniae, antibiotic + SP-BIM 13
[6] = SP-BIM 9 in combination with the labelled antibiotic
[7] = antibiotic in combination with SP-BIM 9
[8] = antibiotic in combination with SP-BIM 13
[9] = SP-BIM 13 with the labelled antibiotic

[H]/N=C(/N)N[C@H]1[C@H](O)[C@@H](O)[C@H](O[C@@H]2O[C@@H](C)[C@](O)(C=O)[C@H]2O[C@@H]2O[C@@H](CO)[C@H](O)[C@@H](O)[C@@H]2NC)[C@@H](N/C(N)=N\[H])[C@@H]1O [Streptomycin, streptomycin]
MIC (Candida albicans; 24 h, read-out: MIC antibiotic only): > 250 µg/mL | MIC in combination: Antibiotic (Candida albicans; MIC of the antibiotic in combination with SP-BIM 13): 16 | FIC of SP-BIM 13 (Candida albicans; [3]): 0.1 | Interpretation (Candida albicans; antibiotic + SP-BIM 13): Synergy (Synergy: FICI≤0.5) | Σ FIC (Candida albicans; antibiotic + SP-BIM 13): <0.2 | FIC of antibiotic (Candida albicans; combination with SP-BIM 13): 0.1 | FIC of SP-BIM 9 (Streptococcus pneumoniae; Streptococcus pneumonia (title: Streptococcus pyogenes), SP-BIM 9 in combination with the labelled antibiotic): 0.06 | Interpretation (Streptococcus pneumoniae; [4]): Synergy (Synergy: FICI≤0.5) | Σ FIC (Streptococcus pneumoniae; [4]): <0.07 | MIC in combination, Antibiotic (Streptococcus pneumoniae; Streptococcus pneumonia (title: Streptococcus pyogenes), antibiotic in combination with SP-BIM 9): 0.2 µg/mL | FIC of antibiotic (Streptococcus pneumoniae; Streptococcus pneumonia (title: Streptococcus pyogenes), in combination with SP-BIM 9): 0.01 | MIC (Streptococcus pneumoniae; Streptococcus pneumoniae, Streptococcus pneumonia (title: Streptococcus pyogenes), SP-BIM 9 checkerboard): 32 µg/mL | MIC (Streptococcus pneumoniae; Streptococcus pneumoniae, Streptococcus pneumoniae, SP-BIM 13 checkerboard): 32 µg/mL | FIC of SP-BIM 13 (Streptococcus pneumoniae; Streptococcus pneumoniae, SP-BIM 13 in combination with the labelled antibiotic): 0.3 | Interpretation (Streptococcus pneumoniae; [5]): Synergy (Synergy: FICI≤0.5) | Σ FIC (Streptococcus pneumoniae; [5]): <0.3 | MIC in combination, Antibiotic (Streptococcus pneumoniae; Streptococcus pneumoniae, antibiotic in combination with SP-BIM 13): 1 µg/mL | FIC of antibiotic (Streptococcus pneumoniae; Streptococcus pneumoniae, in combination with SP-BIM 13): 0.0 | MIC (Staphylococcus aureus; SP-BIM 9 checkerboard): 8 µg/mL | MIC (Staphylococcus aureus; SP-BIM 13 checkerboard): 8 µg/mL | FIC of SP-BIM 9 (Staphylococcus aureus; [6]): 0.25 | FIC of SP-BIM 13 (Staphylococcus aureus; [3]): 0.3 | Interpretation (Staphylococcus aureus; antibiotic + SP-BIM 9): Synergy (Synergy: FICI≤0.5) | Σ FIC (Staphylococcus aureus; antibiotic + SP-BIM 9): <0.38 | Interpretation (Staphylococcus aureus; antibiotic + SP-BIM 13): Synergy (Synergy: FICI≤0.5) | Σ FIC (Staphylococcus aureus; antibiotic + SP-BIM 13): 0.3 | MIC in combination, Antibiotic (Staphylococcus aureus; [7]): 1.0 µg/mL | MIC in combination, Antibiotic (Staphylococcus aureus; [8]): 0.25 µg/mL | FIC of antibiotic (Staphylococcus aureus; in combination with SP-BIM 9): 0.13 | FIC of antibiotic (Staphylococcus aureus; in combination with SP-BIM 13): 0.0 | MIC (MRSA): 63 µg/mL | FIC compound ([1]; E. faecium strain 21955): 0252 | Rescue concentration of SP-BIM 13 ([1]; E. faecium strain 21955): 63 µg/mL | Interpretation ([1]; E. faecium strain 21955): Synergy (Synergy: FICI≤0.5) | Σ FIC ([1]; E. faecium strain 21955): <0.26 | MIC of antibiotic only ([1]; E. faecium strain 21955): 125 µg/mL | FIC antibiotic ([1]; E. faecium strain 21955): 0.004 | MIC of antibiotic in combination ([1]; E. faecium strain 21955): 0.5 µg/mL | FIC compound ([1]; E. faecium strain 23668): 0.064 | Rescue concentration of SP-BIM 13 ([1]; E. faecium strain 23668): 16 µg/mL | Interpretation ([1]; E. faecium strain 23668): Synergy (Synergy: FICI≤0.5) | Σ FIC ([1]; E. faecium strain 23668): <0.08 | MIC of antibiotic only ([1]; E. faecium strain 23668): 63 µg/mL | FIC antibiotic ([1]; E. faecium strain 23668): 0.016 | MIC of antibiotic in combination ([1]; E. faecium strain 23668): 1 µg/mL | FIC compound ([1]; E. faecium strain RC63): 0.032 | Rescue concentration of SP-BIM 13 ([1]; E. faecium strain RC63): 8 µg/mL | Interpretation ([1]; E. faecium strain RC63): Synergy (Synergy: FICI≤0.5) | Σ FIC ([1]; E. faecium strain RC63): <0.04 | MIC of antibiotic only ([1]; E. faecium strain RC63): 125 µg/mL | FIC antibiotic ([1]; E. faecium strain RC63): 0.008 | MIC of antibiotic in combination ([1]; E. faecium strain RC63): 1 µg/mL | MIC (Klebsiella pneumoniae; SP-BIM 9 checkerboard): 125 µg/mL | MIC (Klebsiella pneumoniae; SP-BIM 13 checkerboard): 125 µg/mL | FIC of SP-BIM 9 (Klebsiella pneumoniae; [6]): 0.5 | FIC of SP-BIM 13 (Klebsiella pneumoniae; [3]): 0.0 | Interpretation (Klebsiella pneumoniae; antibiotic + SP-BIM 9): Additive (Additive: FICI>0.5-1.0) | Σ FIC (Klebsiella pneumoniae; antibiotic + SP-BIM 9): <0.6 | Interpretation (Klebsiella pneumoniae; antibiotic + SP-BIM 13): Synergy (Synergy: FICI≤0.5) | Σ FIC (Klebsiella pneumoniae; antibiotic + SP-BIM 13): <0.3 | MIC in combination, Antibiotic (Klebsiella pneumoniae; [7]): 16 µg/mL | MIC in combination, Antibiotic (Klebsiella pneumoniae; [8]): 32 µg/mL | FIC of antibiotic (Klebsiella pneumoniae; in combination with SP-BIM 9): 0.128 | FIC of antibiotic (Klebsiella pneumoniae; in combination with SP-BIM 13): 0.3 | FIC compound [2, 9]: 0.004 | Rescue concentration of SP-BIM 13 [2, 9]: 16 µg/mL | Interpretation ([2]; antibiotic + SP-BIM 13): Synergy (Synergy: FICI≤0.5) | Σ FIC ([2]; antibiotic + SP-BIM 13): <0.13 | MIC of antibiotic only ([2]; antibiotic alone): 63 µg/mL

Reference: patent US12285407B2, “Bis-indolylmethane derivatives and uses thereof” (The University of The West Indies, priority 2018, dated 2025)
